According to patent publication US20230220047A1, “PEPTIDES FOR TREATMENT OF SEPSIS AND CANCER” (NORWEGIAN UNIVERSITY OF SCIENCE AND TECHNOLOGY (NTNU), priority 2020, published 2023):
“Also recorded” adds a separate entry of the source.

Tests used:
[1] = system: ANBL-6 multiple myeloma cells; test: CellTiter-Glo cell viability assay, ANBL-6; assay type: cell-based; settings: for anti-proliferative activity over a concentration series: 5, 10, 12.5, 15, 20 and 30 μM or 5, 10 and 20 μM
[2] = system: TLR4; test: Western blot of LPS signalling in murine immortalized BMDMs; assay type: cell-based, mouse; settings: murine macrophages, 10 μM
Experimental: Western blot analysis of lysates from cells pretreated with media containing controls (water, DMSO or 10 μM control peptide C3-Pen) or P7-Pen peptide for 30 min before stimulation with LPS (K12 LPS, 100 ng/ml) for designated time periods.
Protein pellets were dissolved by heating protein pellets for 10 min at 95° C. in buffer containing 4 M urea, 1 SDS (Sigma) and NuPAGE® LDS Sample Buffer (4×) (Thermo Fisher Scientific). Otherwise, lysates were made using 1× RIPA lysis buffer (150 mM NaCl, 50 mM TrisHCl (pH 7.5), 1% Triton X100, 5 mM EDTA, protease inhibitors, phosphatase inhibitors). For Western blot analysis we used pre-cast protein gels NuPAGE™ Novex™ and iBlot Transfer Stacks iBlot Gel Transfer Device (Thermo Fisher Scientific). Proteins were transferred to the membrane by dry-blotting using iBlot® 2 NC Regular/Mini Stacks (Life Technologies) in the iBlot 2 Dry Blotting System (Life Technologies). After secondary antibody incubation, membranes were washed and incubated with HRP substrate solution (SuperSignal™ West Femto Maximum Sensitivity Substrate (Thermo Fisher Scientific)). Images were taken using Odyssey® Fc (LI-CORE). Quantification graphs were generated by the analysis of signal intensities for protein bands (protein of interest and endogenous loading control—β-tubulin from the same membrane) using Odyssey software (LI-CORE). Data were normalised to the expression levels of β-tubulin and presented as a relative fold change to the control sample.
In addition, pre-treatment of murine macrophages with P7-Pen inhibited LPS-mediated phosphorylation of TBK1 and IκBα, and decreased phosphorylation of p38 MAPK (FIG. 23).

[3] = system: Jurkat cells; test: Proliferation of Jurkat T cell leukaemia cells; assay type: cell-based, human; settings: 15 μM or 20 μM, 48 h
Experimental: Jurkat cells were seeded at 5000 cells/well (as indicated by dotted line) and incubated in medium supplemented with water, penetratin, P7-Pen or P7-N4-Pen. Peptides were included at 15 μM (A) or 20 μM (B). Cells were incubated for 48 hours then counted. […] Results are based on 3 biological replicates, error bars show standard deviation of mean.
SW480 (ATCC CCL-228) and Jurkat (ATCC Clone E6-1; TIB-152) cells were cultured in RPMI 1640 (Sigma-Aldrich, Schnelldorf, Germany) supplemented with 10% heat-inactivated FCS, penicillin/streptomycin (Life Technologies) and 20 mM L-Glutamine. THP-1 cells (ATCC TIB-202) were cultured in RPMI-1640 (high-glucose, ATCC) supplemented with 10% heat inactivated foetal calf serum (FCS), 100 nM penicillin/streptomycin and 5 μM β-mercaptoethanol (Sigma). THP-1 cells were differentiated with 60 ng/ml phorbol 12-myristate 13-acetate (PMA, Sigma) for 72 h, followed by 24 or 48 h in medium without PMA.
The peptides were tested against the SW480 cell line in the presence and absence of LPS.

Substance: Ac-ITVAASVTLTGRQIKIWFQNRRMKWKK-NH2 [Peptide P7-A4-Pen]
- effect on proliferation of ANBL-6 cells ([1]; 15 μM): anti-proliferative effect
- anti-proliferative activity over a concentration series ([1]; 48 h): clear concentration-dependent effect
- cell proliferation ([1]; ANBL-6, 10 μM, 48 h): strongly inhibited cell proliferation
- cytotoxic activity (cell numbers below number seeded) ([1]; higher concentrations, 48 h): cytotoxic activity

Substance: Ac-ITVYASVTLTGRQIKIWFQNRRMKWKK-NH2 [Peptide P7-Pen]
- LPS-mediated phosphorylation of TBK1 and IκBα [2]: inhibited
- phosphorylation of p38 MAPK ([2]; LPS): decreased
- anti-proliferative activity over a concentration series ([1]; 48 h): essentially no anti-proliferative effect
- effect on proliferation of Jurkat cells [3]: possible anti-proliferative effect; also recorded: clear anti-proliferative effect
